Patent US9550742B2, “11-OXO-10,11-dihydrodibenzo[B,F][1,4]thiazepine S-oxide derivatives and their use as dopamine D2 receptor antagonists” (The United States of America, as Represented by the …, priority 2013, dated 2017)

Target: T1, D2 DAR (Homo sapiens, UniProt P14416)
T1 construct: expressed in transfected cells; host or cells: HEK293 T-REx, Tet-inducible, with chimeric G-protein Gqi5
Test: D2 Ca^2+ screen assay (calcium accumulation, HEK293 T-REx with Gqi5)
Type: cell-based
Conditions: dopamine D2 calcium release assay of Example 1; read-out: Ca^2+ AC50
Method: The resting concentration of calcium ions (Ca^2+) in the cells' cytoplasm is normally maintained in the range of 10-100 nM. To maintain this low concentration, Ca^2+ is actively pumped from the cytosol to the extracellular space and into the endoplasmic reticulum (ER), and sometimes into the mitochondria. Signaling occurs when the cell is stimulated to release Ca^2+ from intracellular stores. The most common signaling pathway that increases cytoplasmic calcium concentration is the phospholipase C (PLC) pathway. […] IP3 diffuses to the ER, binds to its receptor (IP3 receptor), which is a Ca^2+ channel and, thus, releases Ca^2+ from the ER to the cytosol. To measure this cytosolic Ca^2+ accumulation, we used the Screen Quest™ Fluo-8 Calcium Assay Kit (AAT Bioquest, Sunnyvale, Calif.). Acetoxymethyl (AM) esters bound to Fluo-8™ dye are non-polar molecules that easily cross live cell membranes transporting the dye inside the cell, and are then rapidly hydrolyzed by cellular esterases inside live cells. As Fluo-8™ is freed from AM esters, it binds to Ca^2+ and emits a fluorescent signal at 514 nm that escalates with increasing cytosolic Ca^2±. To measure this calcium flux signal, we used the Functional Drug Screening System (FDSS) (Hamamatsu, Japan), a high throughput screening device that allows optical detection of signal transmissions within living cells in a time-resolving fashion. […] Quest Fluo-8™ calcium reagent was freshly prepared prior to adding to the cells (lyophilized Fluo-8™ dye provided with the kit was re-suspended in 200 μL DMSO as a 500× stock and stored at −20° C.). 2 μL/well of Quest Fluo-8™ calcium dye diluted in HBSS +10 mM HEPES buffer (for every 10 mL buffer, 1 mL of 10× quencher provided in the kit and 20 μL of 500×DMSO stock dye were added) was added to cells with a Multi-Drop Combi (ThermoScientific) and incubated for 45-90 min in the dark at ambient temperature. Then, the plates were introduced into the FDSS where they were pinned with 23 nL of test compound or dopamine controls and were read by FDSS in non-stimulated mode for 180 sec for detection of agonists. […]

T1 sequence (P14416 whole entry): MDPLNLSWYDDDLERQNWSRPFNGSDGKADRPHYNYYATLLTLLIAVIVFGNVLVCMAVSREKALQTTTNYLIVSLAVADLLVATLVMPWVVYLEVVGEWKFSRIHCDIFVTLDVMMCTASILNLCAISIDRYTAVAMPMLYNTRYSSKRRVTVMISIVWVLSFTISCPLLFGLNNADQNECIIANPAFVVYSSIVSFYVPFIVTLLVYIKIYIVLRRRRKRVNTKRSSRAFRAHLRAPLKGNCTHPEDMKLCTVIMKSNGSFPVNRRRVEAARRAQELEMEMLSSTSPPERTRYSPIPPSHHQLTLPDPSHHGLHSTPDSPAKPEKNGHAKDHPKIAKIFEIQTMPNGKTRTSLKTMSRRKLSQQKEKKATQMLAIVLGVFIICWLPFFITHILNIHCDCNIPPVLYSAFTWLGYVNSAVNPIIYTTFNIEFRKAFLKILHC

SMILES | AC50
CN1C(=O)c2ccccc2[S+]([O-])c2ccc(C(=O)NCCN3CCCC3)cc21 (stereo not drawn) [Compound 33, 10-Methyl-11-oxo-N-(2-(pyrrolidin-1-yl)ethyl)-10,11-dihydrodibenzo[b,f][1,4]thiazepine-8-carboxamide 5-oxide] | < 1000 nM
CN1C(=O)c2ccccc2[S+]([O-])c2ccc(C(=O)NCc3ccc(Br)cc3)cc21 (stereo not drawn) [Compound 29, N-(4-Bromobenzyl)-10-methyl-11-oxo-10,11-dihydrodibenzo[b,f][1,4]thiazepine-8-carboxamide 5-oxide] | < 1000 nM
CCN1C(=O)c2ccccc2[S+]([O-])c2ccc(C(=O)NCc3ccc4c(c3)OCO4)cc21 (stereo not drawn) [Compound 15, N-(benzo[d][1,3]dioxol-5-ylmethyl)-10-ethyl-11-oxo-10,11dihydrodibenzo[b,f][1,4]thiazepine-8-carboxamide 5-oxide] | < 1000 nM
CN1C(=O)c2ccccc2[S+]([O-])c2ccc(C(=O)NCc3cccc(Cl)c3)cc21 (stereo not drawn) [Compound 28, N-(3-Chlorobenzyl)-10-methyl-11-oxo-10,11-dihydrodibenzo[b,f][1,4]thiazepine-8-carboxamide 5-oxide] | < 1000 nM
CCN1C(=O)c2ccccc2[S+]([O-])c2ccc(C(=O)NC(C)c3ccccc3)cc21 (stereo not drawn) [Compound 5, 10-Ethyl-11-oxo-N-(1-phenylethyl)-10,11-dihydrodibenzo[b,f][1,4]thiazepine-8-carboxamide 5-oxide] | < 1000 nM
CN1C(=O)c2ccccc2[S+]([O-])c2ccc(C(=O)NCCN3CCCCC3)cc21 (stereo not drawn) [Compound 34, 10-Methyl-11-oxo-N-(2-(piperidin-1-yl)ethyl)-10,11-dihydrodibenzo[b,f][1,4]thiazepine-8-carboxamide 5-oxide] | < 1000 nM
CN1C(=O)c2ccccc2[S+]([O-])c2ccc(C(=O)NCc3ccccc3)cc21 (stereo not drawn) [Compound 25, N-Benzyl-10-methyl-11-oxo-10,11-dihydrodibenzo[b,f][1,4]thiazepine-8-carboxamide 5-oxide] | < 1000 nM
CN1C(=O)c2ccccc2[S+]([O-])c2ccc(C(=O)NCc3ccc(Cl)cc3)cc21 (stereo not drawn) [Compound 27, N-(4-Chlorobenzyl)-10-methyl-11-oxo-10,11-dihydrodibenzo[b,f][1,4]thiazepine-8-carboxamide 5-oxide] | < 1000 nM
CCN1C(=O)c2ccccc2[S+]([O-])c2ccc(C(=O)Nc3ccccc3)cc21 (stereo not drawn) [Compound 16, 10-Ethyl-11-oxo-N-phenyl-10,11-dihydrodibenzo[b,f][1,4]thiazepine-8-carboxamide 5-oxide] | < 1000 nM
CN(C)CCCNC(=O)c1ccc2c(c1)N(C)C(=O)c1ccccc1[S+]2[O-] (stereo not drawn) [Compound 35, N-(3-(Dimethylamino)propyl)-10-methyl-11-oxo-10,11-dihydrodibenzo[b,f][1,4]thiazepine-8-carb oxamide 5-oxide] | < 1000 nM
CN1C(=O)c2ccccc2[S+]([O-])c2ccc(C(=O)NCc3ccc(F)cc3)cc21 (stereo not drawn) [Compound 26, N-(4-Fluorobenzyl)-10-methyl-11-oxo-10,11-dihydrodibenzo[b,f][1,4]thiazepine-8-carboxamide 5-oxide] | < 1000 nM
CN1C(=O)c2ccccc2[S+]([O-])c2ccc(C(=O)NCc3cccnc3)cc21 (stereo not drawn) [Compound 31, 10-Methyl-11-oxo-N-(pyridin-3-ylmethyl)-10,11-dihydrodibenzo[b,f][1,4]thiazepine-8-carboxamide 5-oxide] | < 1000 nM
CCN1C(=O)c2ccccc2[S+]([O-])c2ccc(NC(=O)Cc3ccc(F)cc3)cc21 (stereo not drawn) [Compound 46, N-(10-Ethyl-11-oxo-10,11-dihydrodibenzo[b,f][1,4]thiazepin-8-yl)-2-(4-fluorophenyl)acetamide 5-oxide] | < 1000 nM
COc1ccc(NC(=O)c2ccc3c(c2)N(C)C(=O)c2ccccc2[S+]3[O-])cc1 (stereo not drawn) [Compound 24, N-(4-Methoxyphenyl)-10-methyl-11-oxo-10,11-dihydrodibenzo[b,f][1,4]thiazepine-8-carboxamide 5-oxide] | < 1000 nM

Second part, the compound after the results:

AC50 | SMILES
< 1000 nM | CCN1C(=O)c2ccccc2[S+]([O-])c2ccc(C(=O)Nc3ccc(OC)cc3)cc21 (stereo not drawn) [Compound 17, 10-Ethyl-N-(4-methoxyphenyl)-11-oxo-10,11-dihydrodibenzo[b,f][1,4]thiazepine-8-carboxamide 5-oxide]
< 1000 nM | CCN1C(=O)c2ccccc2Sc2ccc(C(=O)NCc3ccc(OC)cc3)cc21 [Compound 36, 10-Ethyl-N-(4-methoxybenzyl)-11-oxo-10,11-dihydrodibenzo[b,f][1,4]thiazepine-8-carboxamide]
< 1000 nM | CCN1C(=O)c2ccccc2[S+]([O-])c2ccc(C(=O)NCc3ccc(C(C)(C)C)cc3)cc21 (stereo not drawn) [Compound 7, N-(4-tert-Butylbenzyl)-10-ethyl-11-oxo-10,11-dihydrodibenzo[b,f][1,4]thiazepine-8-carboxamide 5-oxide]
< 1000 nM | CCN1C(=O)c2ccccc2[S+]([O-])c2ccc(C(=O)NCc3ccc(S(C)(=O)=O)cc3)cc21 (stereo not drawn) [Compound 13, 10-Ethyl-N-(4-(methylsulfonyl)benzyl)-11-oxo-10,11-dihydrodibenzo[b,f][1,4]thiazepine-8-carboxamide 5-oxide]
< 1000 nM | CCCN1C(=O)c2ccccc2[S+]([O-])c2ccc(C(=O)NCc3ccc(OC)cc3)cc21 (stereo not drawn) [Compound 21, N-(4-Methoxybenzyl)-11-oxo-10-propyl-10,11-dihydrodibenzo[b,f][1,4]thiazepine-8-carboxamide 5-oxide]
< 1000 nM | CCN1C(=O)c2ccccc2[S+]([O-])c2ccc(C(=O)NCCc3ccc(OC)cc3)cc21 (stereo not drawn) [Compound 18, 10-Ethyl-N-(4-methoxyphenethyl)-11-oxo-10,11-dihydrodibenzo[b,f][1,4]thiazepine-8-carboxamide 5-oxide]
< 1000 nM | CCN1C(=O)c2ccccc2[S+]([O-])c2ccc(C(=O)NCc3ccc(SC)cc3)cc21 (stereo not drawn) [Compound 6, 10-Ethyl-N-(4-(methylthio)benzyl)-11-oxo-10,11-dihydrodibenzo[b,f][1,4]thiazepine-8-carboxamide 5-oxide]
< 1000 nM | CCN1C(=O)c2ccccc2[S+]([O-])c2ccc(C(=O)NCc3ccc(C)cc3)cc21 (stereo not drawn) [Compound 8, 10-Ethyl-N-(4-methylbenzyl)-11-oxo-10,11-dihydrodibenzo[b,f][1,4]thiazepine-8-carboxamide 5-oxide]
< 1000 nM | CCN1C(=O)c2ccccc2[S+]([O-])c2ccc(C(=O)NCc3ccc(C(F)(F)F)cc3)cc21 (stereo not drawn) [Compound 9, 10-Ethyl-11-oxo-N-(4-(trifluoromethyl)benzyl)-10,11-dihydrodibenzo[b,f][1,4]thiazepine-8-carboxamide 5-oxide]
< 1000 nM | CCN1C(=O)c2ccccc2[S+]([O-])c2ccc(C(=O)NCc3ccc(C#N)cc3)cc21 (stereo not drawn) [Compound 12, N-(4-Cyanobenzyl)-10-ethyl-11-oxo-10,11-dihydrodibenzo[b,f][1,4]thiazepine-8-carboxamide 5-oxide]
< 1000 nM | CCN1C(=O)c2ccccc2[S+]([O-])c2ccc(C(=O)NCc3ccc(Cl)cc3)cc21 (stereo not drawn) [Compound 11]
< 1000 nM | CCN1C(=O)c2ccccc2[S+]([O-])c2ccc(NC(=O)Cc3ccc(OC)cc3)cc21 (stereo not drawn) [Compound 45, N-(10-Ethyl-11-oxo-10,11-dihydrodibenzo[b,f][1,4]thiazepin-8-yl)-2-(4-methoxyphenyl)acetamide 5-oxide]
< 1000 nM | CCN1C(=O)c2ccccc2[S+]([O-])c2ccc(C(=O)NCc3ccccc3)cc21 (stereo not drawn) [Compound 4, N-Benzyl-10-ethyl-11-oxo-10,11-dihydrodibenzo[b,f][1,4]thiazepine-8-carboxamide 5-oxide]
< 1000 nM | COc1ccc(CNC(=O)c2ccc3c(c2)N(C)C(=O)c2ccccc2[S+]3[O-])cc1 (stereo not drawn) [Compound 20, N-(4-Methoxybenzyl)-10-methyl-11-oxo-10,11-dihydrodibenzo[b,f][1,4]thiazepine-8-carboxamide 5-oxide]
< 1000 nM | CCN1C(=O)c2ccccc2[S+]([O-])c2ccc(C(=O)NCc3ccc(F)cc3)cc21 (stereo not drawn) [Compound 10, 10-Ethyl-N-(4-fluorobenzyl)-11-oxo-10,11-dihydrodibenzo[b,f][1,4]thiazepine-8-carboxamide 5-oxide]
< 1000 nM | CCN1C(=O)c2ccccc2[S+]([O-])c2ccc(C(=O)NCc3cccc(OC)c3)cc21 (stereo not drawn) [Compound 2, 10-Ethyl-N-(3-methoxybenzyl)-11-oxo-10,11-dihydrodibenzo[b,f][1,4]thiazepine-8-carboxamide 5-oxide]
